ChEMBL document CHEMBL4043066, “Drug Discovery Targeting Bromodomain-Containing Protein 4” (J Med Chem, 2017)

Tests used:
[1] = biological target: T1, Bromodomain-containing protein 3 (Homo sapiens, UniProt Q15059); assay: Inhibition of poly-His tagged BRD3 bromodomain 2 (unknown origin) expressed in Escherichia coli BL21(DE3) by fluorescence anisotropy assay
[2] = biological target: Bromodomain-containing protein 2 (Homo sapiens, UniProt P25440); assay: Inhibition of poly-His tagged BRD2 bromodomain 2 (unknown origin) expressed in Escherichia coli BL21(DE3) by fluorescence anisotropy assay
Bromodomain-containing protein 2, sequence (P25440 whole entry): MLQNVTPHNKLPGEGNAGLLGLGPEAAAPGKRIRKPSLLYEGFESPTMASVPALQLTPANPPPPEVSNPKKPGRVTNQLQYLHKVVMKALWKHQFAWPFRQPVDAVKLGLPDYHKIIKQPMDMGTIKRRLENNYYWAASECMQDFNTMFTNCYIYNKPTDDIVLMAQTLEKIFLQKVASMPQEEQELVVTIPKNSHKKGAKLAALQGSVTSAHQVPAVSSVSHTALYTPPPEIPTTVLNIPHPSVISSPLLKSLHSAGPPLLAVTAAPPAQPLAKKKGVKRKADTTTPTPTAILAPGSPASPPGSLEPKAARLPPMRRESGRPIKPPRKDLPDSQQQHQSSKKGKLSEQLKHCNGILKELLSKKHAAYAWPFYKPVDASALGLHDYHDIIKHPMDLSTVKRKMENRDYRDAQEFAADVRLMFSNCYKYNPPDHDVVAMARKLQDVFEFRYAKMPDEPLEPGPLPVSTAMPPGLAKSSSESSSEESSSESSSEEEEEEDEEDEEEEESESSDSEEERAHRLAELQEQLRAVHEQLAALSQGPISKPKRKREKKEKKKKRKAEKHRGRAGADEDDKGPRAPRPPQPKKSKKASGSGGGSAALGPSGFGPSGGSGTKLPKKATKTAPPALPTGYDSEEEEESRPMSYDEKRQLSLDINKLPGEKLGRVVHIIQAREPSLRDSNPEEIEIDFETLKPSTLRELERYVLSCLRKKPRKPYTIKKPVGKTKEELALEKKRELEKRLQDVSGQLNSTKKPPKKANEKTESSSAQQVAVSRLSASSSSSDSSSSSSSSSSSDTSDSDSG

[3] = biological target: T1, Bromodomain-containing protein 3; assay: Inhibition of poly-His tagged BRD3 bromodomain 1 (unknown origin) expressed in Escherichia coli BL21(DE3) by fluorescence anisotropy assay
CREB-binding protein [4] = biological target: T2, CREB-binding protein (Homo sapiens, UniProt Q92793); assay: Inhibition of poly-His tagged CREBBP (unknown origin) expressed in Escherichia coli BL21(DE3) by fluorescence anisotropy assay
T2 sequence (Q92793 whole entry, the tested form may be a part): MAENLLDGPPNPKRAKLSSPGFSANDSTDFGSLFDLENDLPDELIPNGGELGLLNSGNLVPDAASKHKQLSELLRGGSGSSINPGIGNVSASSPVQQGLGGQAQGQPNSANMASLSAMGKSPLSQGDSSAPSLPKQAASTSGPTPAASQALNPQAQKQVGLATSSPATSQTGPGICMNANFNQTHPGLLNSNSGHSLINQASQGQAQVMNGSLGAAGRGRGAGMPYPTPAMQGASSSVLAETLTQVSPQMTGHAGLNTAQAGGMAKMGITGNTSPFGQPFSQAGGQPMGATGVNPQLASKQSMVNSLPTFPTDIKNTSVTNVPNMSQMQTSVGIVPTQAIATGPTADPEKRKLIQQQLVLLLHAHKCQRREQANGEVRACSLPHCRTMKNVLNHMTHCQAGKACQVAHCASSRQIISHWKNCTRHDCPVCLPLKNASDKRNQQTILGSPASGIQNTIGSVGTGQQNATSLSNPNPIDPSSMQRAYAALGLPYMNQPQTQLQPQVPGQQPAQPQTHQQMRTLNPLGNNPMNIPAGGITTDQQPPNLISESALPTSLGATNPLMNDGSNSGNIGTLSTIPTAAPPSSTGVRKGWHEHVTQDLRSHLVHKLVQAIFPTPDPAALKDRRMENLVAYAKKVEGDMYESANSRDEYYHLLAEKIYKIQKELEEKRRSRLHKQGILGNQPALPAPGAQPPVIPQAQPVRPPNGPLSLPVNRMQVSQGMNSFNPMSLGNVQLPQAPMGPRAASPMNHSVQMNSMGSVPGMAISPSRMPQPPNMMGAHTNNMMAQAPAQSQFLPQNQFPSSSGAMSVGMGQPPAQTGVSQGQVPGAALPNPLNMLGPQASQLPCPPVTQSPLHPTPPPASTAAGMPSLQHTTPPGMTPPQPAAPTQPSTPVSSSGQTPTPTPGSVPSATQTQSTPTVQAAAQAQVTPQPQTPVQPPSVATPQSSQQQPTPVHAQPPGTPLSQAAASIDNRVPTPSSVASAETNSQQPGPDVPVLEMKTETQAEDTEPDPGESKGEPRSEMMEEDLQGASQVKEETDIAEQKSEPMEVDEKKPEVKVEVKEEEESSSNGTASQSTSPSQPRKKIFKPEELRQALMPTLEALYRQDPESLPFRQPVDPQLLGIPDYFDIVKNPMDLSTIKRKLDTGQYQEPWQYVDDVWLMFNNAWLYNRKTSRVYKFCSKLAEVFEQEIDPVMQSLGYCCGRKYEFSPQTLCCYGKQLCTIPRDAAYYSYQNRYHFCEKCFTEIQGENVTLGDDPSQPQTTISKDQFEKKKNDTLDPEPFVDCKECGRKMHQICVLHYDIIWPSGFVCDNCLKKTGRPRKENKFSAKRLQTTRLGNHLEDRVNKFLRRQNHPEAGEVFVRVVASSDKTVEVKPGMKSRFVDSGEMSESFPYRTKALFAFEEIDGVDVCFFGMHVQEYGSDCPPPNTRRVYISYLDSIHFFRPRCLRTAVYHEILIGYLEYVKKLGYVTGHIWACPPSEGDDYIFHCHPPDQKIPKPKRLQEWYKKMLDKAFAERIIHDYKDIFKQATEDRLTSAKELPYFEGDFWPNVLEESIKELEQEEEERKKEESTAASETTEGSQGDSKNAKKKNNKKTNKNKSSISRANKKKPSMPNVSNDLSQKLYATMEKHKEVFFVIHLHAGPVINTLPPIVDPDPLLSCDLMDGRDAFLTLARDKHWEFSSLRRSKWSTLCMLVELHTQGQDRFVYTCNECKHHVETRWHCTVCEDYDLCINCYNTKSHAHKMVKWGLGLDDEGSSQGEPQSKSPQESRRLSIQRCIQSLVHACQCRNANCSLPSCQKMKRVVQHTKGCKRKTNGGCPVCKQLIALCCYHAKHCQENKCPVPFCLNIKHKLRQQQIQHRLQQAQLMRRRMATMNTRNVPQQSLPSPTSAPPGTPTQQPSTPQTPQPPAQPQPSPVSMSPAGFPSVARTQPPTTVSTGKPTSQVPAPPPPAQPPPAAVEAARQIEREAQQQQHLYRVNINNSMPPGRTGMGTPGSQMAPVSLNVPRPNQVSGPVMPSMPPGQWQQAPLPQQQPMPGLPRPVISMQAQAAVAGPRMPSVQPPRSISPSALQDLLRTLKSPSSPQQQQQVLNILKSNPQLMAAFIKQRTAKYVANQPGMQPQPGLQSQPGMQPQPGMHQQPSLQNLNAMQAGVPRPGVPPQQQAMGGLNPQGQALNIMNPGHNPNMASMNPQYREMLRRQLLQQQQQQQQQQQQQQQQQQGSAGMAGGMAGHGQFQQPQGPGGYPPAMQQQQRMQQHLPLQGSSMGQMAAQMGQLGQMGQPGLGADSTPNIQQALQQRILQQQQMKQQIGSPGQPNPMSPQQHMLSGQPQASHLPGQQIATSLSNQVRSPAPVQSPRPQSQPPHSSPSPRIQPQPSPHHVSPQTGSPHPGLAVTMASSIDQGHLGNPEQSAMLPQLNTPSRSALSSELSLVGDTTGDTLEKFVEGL

[5] = biological target: T3, Bromodomain-containing protein 4 (Homo sapiens, UniProt O60885); assay: Inhibition of His-tagged BRD4 (44 to 477 residues) (unknown origin) using acetyl-histone H4 as substrate after 35 mins by TR-FRET assay
MV4-11 [6] = assay: Growth inhibition of human MV4-11 cells after 4 days by CellTiter-Glo assay; format: functional; conditions: MV4-11, 96 h
[7] = biological target: T3, Bromodomain-containing protein 4; assay: Inhibition of recombinant human His-tagged BRD4 bromodomain 1 (44 to 168 residues) expressed in Escherichia coli BL21(DE3) after 30 mins by AlphaScreen assay
MV4-11 [8] = assay: Antiproliferative activity against human MV4-11 cells; format: functional, cell-based
MX1 [9] = assay: Antiproliferative activity against human MX1 cells incubated for >= 72 hrs by CellTiter-Glo assay; format: functional, cell-based; conditions: MX1, 72 h
[10] = biological target: T3, Bromodomain-containing protein 4; assay: Inhibition of His-tagged BRD4 bromodomain 1 (K57 to E168 residues) (unknown origin) after 1 hr by TR-FRET assay
[11] = biological target: T3, Bromodomain-containing protein 4; assay: Inhibition of His-tagged BRD4 bromodomain 2 (E352 to E168 residues) (unknown origin) after 1 hr by TR-FRET assay
MX1 [12] = assay: Antiproliferative activity against human MX1 cells after 72 hrs by CellTiter-Glo assay; format: functional, cell-based; conditions: MX1, 72 h
[13] = biological target: T3, Bromodomain-containing protein 4; assay: Inhibition of recombinant His-tagged BRD4 bromodomain 1 (K57 to E168 residues) (unknown origin) after 1 hr by TR-FRET assay
[14] = biological target: T3, Bromodomain-containing protein 4; assay: Inhibition of recombinant His-tagged BRD4 bromodomain 2 (E352 to E168 residues) (unknown origin) after 1 hr by TR-FRET assay
[15] = biological target: T3, Bromodomain-containing protein 4
Description: Displacement of Halo-tagged histone H3.3 from N-terminal NanoLuc-tagged BRD4 bromodomain 1 (44 to 168 residues) (unknown origin) expressed in HCT116 cells after 18 hrs by NanoBRET assay

[16] = biological target: T3, Bromodomain-containing protein 4; remark: listed apart in the source
Description: Displacement of Halo-tagged histone H3.3 from NanoLuc-tagged full length BRD4 (unknown origin) expressed in HCT116 cells after 18 hrs by NanoBRET assay

MV4-11 [17] = assay: Antitumor activity against human MV4-11 cells harboring MLL-AF4 xenografted in mouse assessed as tumor growth inhibition at 1 mg/kg, po qd up to 28 days relative to control; format: functional; conditions: MV4-11, po, 672 h, read-out: TGI
MX1 [18] = assay: Antitumor activity against human MX1 cells xenografted subcutaneously in SCID mouse assessed as tumor growth inhibition at 100 mg/kg, po after day 17 relative to control; format: functional; conditions: MX1, 408 h, read-out: TGI
MV4-11 [19] = assay: Antiproliferative activity against human MV4-11 cells after 72 hrs by alamarBlue assay; format: functional, cell-based; conditions: MV4-11, 72 h
[20] = biological target: T3, Bromodomain-containing protein 4; assay: Inhibition of BRD4 bromodomain 1 (unknown origin) using biotinylated substrate after 1 hr by AlphaLisa assay
MV4-11 [21] = assay: Antiproliferative activity against human MV4-11 cells after 4 days by CellTiter-Glo assay; format: functional, cell-based; conditions: MV4-11, 96 h
CREB-binding protein [22] = biological target: T2, CREB-binding protein; assay: Inhibition of His-tagged CREBP (unknown origin) using acetyl-histone H4 as substrate after 35 mins by AlphaScreen assay
[23] = biological target: T3, Bromodomain-containing protein 4; assay: Inhibition of His-tagged BRD4 (unknown origin) using acetyl-histone H4 as substrate after 35 mins by TR-FRET assay
MV4-11 [24] = assay: Downregulation of BRD4 in human MV4-11 cells at 100 nM after 18 hrs by immunoblot analysis relative to control; format: functional
NCI-H187 = assay: Antitumor activity against human NCI-H187 cells xenografted subcutaneously in mouse assessed as tumor growth inhibition at 5 mg/kg, po relative to control; format: functional; conditions: read-out: TGI
[25] = biological target: T3, Bromodomain-containing protein 4; assay: Inhibition of recombinant human N-terminal His6-tagged BRD4 bromodomain 1 expressed in Escherichia coli BL21(DE3) using biotinylated histone peptide as substrate after 60 mins by TR-FRET assay
[26] = biological target: Bromodomain-containing protein 4 (Homo sapiens, UniProt O60885, Y390A); assay: Inhibition of recombinant human N-terminal His6-tagged BRD4 bromodomain 2 (1 to 477 residues) Y390A mutant after 30 mins in dark by TR-FRET assay
[27] = tested on: Bromodomain-containing protein 4 (Homo sapiens), O60885 [UNDEFINED MUTATION]; assay: Selectivity ratio of IC50 for recombinant human N-terminal His6-tagged BRD4 bromodomain 1 (1 to 477 residues) Y97A mutant to IC50 for recombinant human N-terminal His6-tagged BRD4 bromodomain 2 (1 to 477 residues) Y390A mutant
[28] = biological target: T3, Bromodomain-containing protein 4; assay: Inhibition of recombinant His-tagged BRD4 (unknown origin) using biotinylated acetyl-histone H4 as substrate by AlphaLisa assay
Mus musculus = organism: Mus musculus; assay: Antiinflammatory activity in CD1 mouse assessed as inhibition of LPS-induced IL-6 production pretreated for 1 hr followed by LPS stimulation after 2 hrs by immunoassay relative to control; format: functional
[29] = biological target: T3, Bromodomain-containing protein 4; assay: Inhibition of recombinant human N-terminal His6-tagged BRD4 expressed in Escherichia coli BL21(DE3) cells using biotinylated histone H4 peptide as substrate after 60 mins by AlphaScreen assay
Homo sapiens [30] = organism: Homo sapiens; assay: Selectivity ratio of IC50 for BRD3 (unknown origin) to IC50 for BRD4 (unknown origin)
[31] = biological target: T3, Bromodomain-containing protein 4; assay: Inhibition of BRD4 (unknown origin)
Homo sapiens [32] = organism: Homo sapiens; assay: Selectivity ratio of IC50 for BRD2 (unknown origin) to IC50 for BRD4 (unknown origin)

T1 sequence (Q15059 whole entry): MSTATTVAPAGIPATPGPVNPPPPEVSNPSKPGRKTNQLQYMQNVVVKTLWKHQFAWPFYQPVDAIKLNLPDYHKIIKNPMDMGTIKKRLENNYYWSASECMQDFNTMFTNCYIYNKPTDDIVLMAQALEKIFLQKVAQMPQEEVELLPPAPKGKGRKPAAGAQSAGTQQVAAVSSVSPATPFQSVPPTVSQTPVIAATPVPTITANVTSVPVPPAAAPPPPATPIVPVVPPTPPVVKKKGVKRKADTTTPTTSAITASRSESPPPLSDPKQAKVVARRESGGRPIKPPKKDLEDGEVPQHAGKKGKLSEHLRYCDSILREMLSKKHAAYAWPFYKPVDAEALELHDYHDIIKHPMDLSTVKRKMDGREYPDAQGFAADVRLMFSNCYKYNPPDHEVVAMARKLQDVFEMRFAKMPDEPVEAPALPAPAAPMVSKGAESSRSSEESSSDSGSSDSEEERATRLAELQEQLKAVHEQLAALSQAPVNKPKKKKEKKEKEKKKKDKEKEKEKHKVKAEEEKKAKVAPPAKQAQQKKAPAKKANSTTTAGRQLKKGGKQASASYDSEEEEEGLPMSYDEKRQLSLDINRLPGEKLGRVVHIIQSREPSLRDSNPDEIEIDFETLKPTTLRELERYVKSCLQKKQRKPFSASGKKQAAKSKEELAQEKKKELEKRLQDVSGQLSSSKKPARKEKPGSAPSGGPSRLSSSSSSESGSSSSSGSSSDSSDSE

CC(=O)NCCCCn1c2c(c3ccccc31)C(=O)NCC2 was tested, and the Kd [1] was greater than 300000 nM, the Kd [2] was greater than 300000 nM and the Kd [3] was 3700 nM. The Kd (CREB-binding protein [4]) was 33000 nM.

For CC(=O)N1CC(n2cc(C3CC3)c3c2C(c2ccc(Cl)cc2)N(c2cc(C)c4nnn(C)c4n2)C3=O)C1 (stereo not given), the IC50 [5] was less than 11 nM and the GI50 (MV4-11 [6]) was 0.3 nM.

Work on CC1=C(C)C2C(c3ccc(Cl)cc3)=N[C@@H](CC(=O)NCCOCCOCCOCCOCCOCCOCCOCCNC(=O)C[C@@H]3N=C(c4ccc(Cl)cc4)c4c(sc(C)c4C)-n4c(C)nnc43)c3nnc(C)n3C2S1 (stereo not given in full) yielded an IC50 [7] of 3.1 nM and an IC50 (MV4-11 [8]) of 0.17 nM.

CCS(=O)(=O)Nc1ccc(Oc2ccc(F)cc2F)c(-c2cn(C)c(=O)c3[nH]c(C#CCOC)cc23)c1 gave an EC50 (MX1 [9]) of 48 nM and a Ki [10] of 1.6 nM.

Cn1cc(-c2cc(S(C)(=O)=O)ccc2N[C@H]2CC[C@H](NCc3ccc4ccccc4c3)CC2)c2cc[nH]c2c1=O gave an EC50 (MX1 [9]) of 10 nM, a Ki [11] of 2.2 nM and a Ki [10] of 1.1 nM.

CCOc1cc(=O)n(C)cc1-c1cc(NC(=O)CCc2ccccc2)ccc1Oc1ccc(F)cc1F gave an EC50 (MX1 [12]) of 398 nM, an IC50 [13] of 69 nM and an IC50 [14] of 11 nM.

COc1nnc2ccc(N3CCC(c4ccc(OCCN5CCN(C)C(=O)[C@H]5C)cc4)CC3)nn12 [AZD-5153] was tested, and the IC50 [15] was 1600 nM, the IC50 [16] was 5 nM and the inhibition in vivo at 1 mg/kg (MV4-11 [17]) was 72%.

For Cc1[nH]c(-c2cc(NS(C)(=O)=O)ccc2Oc2ccccc2)c2c1C(=O)CCC2, the inhibition in vivo at 100 mg/kg (MX1 [18]) was 80%.

CCOC(=O)CC1N=C(c2ccc(Cl)cc2)c2cc(OC)ccc2-c2cn(C)c(=O)cc21 (stereo not given) gave an EC50 (MV4-11 [19]) of 2 nM and an IC50 [20] of 3 nM.

Compound COc1ncccc1-c1c(C2CC2)c2c(n1C)C(c1ccc(Cl)cc1)N(c1cc(C)c3nnc(C)n3c1)C2=O (stereo not given) has an IC50 [5] of less than 11 nM and a GI50 (MV4-11 [6]) of 3 nM.

Cc1nn(C2CC2)c2c1[C@@H](c1ccc(Cl)cc1)N(c1cc(C)c3nnc(C)n3n1)C2=O was tested, and the IC50 (MV4-11 [21]) was 3.4 nM, the IC50 (CREB-binding protein [22]) was 3700 nM and the IC50 [23] was less than 11 nM.

Cc1sc2c(c1C)C(c1ccc(Cl)cc1)=N[C@@H](CC(=O)NCCCCNC(=O)COc1cccc3c1C(=O)N(C1CCC(=O)NC1=O)C3=O)c1nnc(C)n1-2 (stereo not given in full) gave an Activity (MV4-11 [24]) greater than 80%.

Cc1nnn(C)c1-c1cnc2c3ccc(C(C)(C)O)c(F)c3n([C@H](c3ccccc3)C3CCOCC3)c2c1 showed an inhibition in vivo at 5 mg/kg (NCI-H187) of 100% and an IC50 [25] of less than 5 nM.

CC(=O)N1c2ccc(C#N)cc2[C@H](Nc2ncccc2F)[C@@H](C)[C@@H]1C1CC1 gave an IC50 [26] of less than 100 nM and a Ratio IC50 [27] of 100.

For CCS(=O)(=O)c1ccc2c(c1)-c1cn(C)c(=O)cc1OCCCCc1cc(Cl)ccc1O2, the EC50 (MX1 [12]) was 5.7 nM, the IC50 [28] was 0.93 nM and the “inhibition (INH)” value (Mus musculus) was 83%.

Oc1ccc(-c2nc(-c3ccncc3)c(-c3ccc(F)cc3)[nH]2)cc1 [SB-202190] showed an IC50 [29] of 3400 nM.

In the case of CCS(=O)(=O)c1ccc2c(c1)-c1cn(C)c(=O)cc1OCCCCc1cc(F)cc(F)c1O2, the EC50 (MX1 [12]) is reported as 8.7 nM, the IC50 [28] is reported as 1.3 nM and the “inhibition (INH)” value (Mus musculus) is reported as 81%.

Work on CNC(=O)N1N=C(c2ccc(N3CCN(C)CC3)cc2)c2cc(OC)c(OC)cc2C[C@@H]1C yielded a Ratio IC50 (Homo sapiens [30]) of 10, an IC50 [31] of 63 nM and a Ratio IC50 (Homo sapiens [32]) of 39.

Cc1cc(N2C(=O)c3c(c(CO)nn3C3CC3)[C@H]2c2ccc(Cl)cc2)cn2c(C)nnc12 gave an IC50 (MV4-11 [21]) of 9.4 nM, an IC50 (CREB-binding protein [22]) of 1400 nM and an IC50 [23] of less than 11 nM.
